US20100297256A1, “METHODS AND COMPOSITIONS FOR INHIBITING INTEGRINS USING TELLURIUM-CONTAINING COMPOUNDS” (priority 2007, published 2010)

Columns and labels:
[1] = test system: HL-60 cells; experiment: AML chemotherapy resistance assay (XTT cell viability), HL-60; assay type: cell-based, human; conditions: HL-60
Experimental: (§1) Cell viability was determined using a cell proliferation kit (Roche), which colors viable cells using the tetrazolium salt XTT.
(§2) 2×10^4 per 200 μl cells were seeded in 96-microwell flat bottom plates. After 24 hours, the tested compound(s) (e.g., AS101, ARA-C, DTNB, anti-VLA-4 antibody) was added, and the cells were incubated overnight with the tested compound(s). The XTT solution was then added and the cells were incubated for 4 hours at 37° C. Cell viability was than evaluated by measuring absorbance at 450 nm using a Microplate Spectrophotometer (Spectra MAX Plus, Molecular Devices).

[2] = test system: U937 cells; experiment: AML chemotherapy resistance assay (XTT cell viability), U937; assay type: cell-based, human; conditions: for resistance of cells to the agent on fibronectin-coated plates in comparison with VCAM-1- and BSA-coated plates: U937
Experimental: as §1, §2
The role of VLA protein in fibronectin-induced resistance to chemotherapy was investigated by performing a chemotherapy resistance assay, as described hereinabove, with anti-VLA-4 and anti-VLA-5 antibodies. U937 cells were grown in fibronectin- and BSA-coated plates. Antibodies were added at a concentration of 1 μg/ml.

[3] = test system: U937 cells; experiment: Fluorescence-based flow cytometry analysis of cell death; set-up: species or system human; conditions: agent alone
Text: Fluorescence-based flow cytometry was used to measure the effect of tellurium-containing compounds on chemotherapy-induced cell death. Accumulation of cells in the sub-G1 fraction, increased proportion of annexin V-positive and propidium iodide-positive cells and increased caspase activity were each used as indicators of increased cell death, using standard procedures.

[4] = test system: Bcl2; experiment: Western blot analysis of Bcl2; assay type: cell-based, human; conditions: ARA-C alone
Text: The expression of the survival factor Bcl2 was examined via Western blot analysis in U937 cells treated with the chemotherapeutic agent ARA-C.

[5] = test system: leukemic cells from AML patients; experiment: Sensitization of leukemic cells from AML patients to chemotherapy; assay type: cell-based, human
Experimental: as §2
Bone marrow samples from patients diagnosed, with AML, but not yet treated, were obtained and grown in vitro. The leukemic cells obtained therefrom were tested for levels of VLA-4 and VLA-5 via fluorescence based cytometry, using FITC (fluorescein isothiocyanate)-conjugated anti-VLA-4 and anti-VLA-5 antibodies, using standard procedures. The cells were grown on both fibronectin and BSA, and the effect of AS101 on chemotherapy resistance was measured.

[6] = test system: leukemic cells; experiment: Chemotherapy resistance assay with DTNB, leukemic cells; assay type: cell-based
Experimental: as §2
The role of free thiols in VLA-4/fibronectin-induced resistance to chemotherapy was therefore investigated by performing a chemotherapy resistance assay, as described hereinabove, with the membrane-impermeable thiol blocker DTNB (5 mM).

SMILES | resistance of cells to the agent on fibronectin-coated plates in comparison with VCAM-1- and BSA-coated plates [1] | resistance of cells to the agent on fibronectin-coated plates in comparison with VCAM-1- and BSA-coated plates [2] | percentage of annexin V-positive and propidium iodide-positive cells ([3]; U937 on BSA) | percentage of cells in the sub-G1 fraction ([3]; U937 on BSA) | percentage of annexin V-positive and propidium iodide-positive cells ([3]; U937 on fibronectin) | percentage of cells in the sub-G1 fraction ([3]; U937 on fibronectin) | percentage of cells with high caspase-3 activity ([3]; U937 on fibronectin) | expression of Bcl2 ([4]; U937 on BSA) | expression of Bcl2 ([4]; U937 on fibronectin) | viability of cells exposed to ARA-C ([5]; 4 AML patients with low VLA-4 levels, on fibronectin and BSA) | resistance of cells to ARA-C ([5]; 8 AML patients with high VLA-4 levels, on fibronectin) | viability of cells exposed to ARA-C ([5]; Patient A, low VLA-4, on fibronectin and BSA) | resistance of cells to ARA-C ([5]; Patient B, high VLA-4, on fibronectin) | effect on viability of cells exposed to ARA-C, alone or in combination ([2]; U937 on BSA) | effect on viability of cells exposed to ARA-C, alone or in combination ([5]; low VLA-4 leukemic cells, fibronectin-coated plates) | sensitization to ARA-C-induced cell death ([6]; 5 mM DTNB, fibronectin-coated plates) | sensitization to ARA-C-induced cell death ([6]; DTNB, BSA-coated plates)
Nc1ccn([C@@H]2O[C@H](CO)[C@@H](O)[C@@H]2O)c(=O)n1 [ARA-C, cytosine arabinoside, reference compound] | more resistant | more resistant | large percentage | large percentage | slight increase | slight increase | little or no effect | reduced expression of Bcl2 considerably | did not decrease expression of Bcl2 | decreased effectively | relatively resistant to ARA-C | decreased effectively | relatively resistant to ARA-C |  |  |  | 
O=C(O)c1cc(SSc2ccc([N+](=O)[O-])c(C(=O)O)c2)ccc1[N+](=O)[O-] [DTNB, 5,5′-dithiobis-(2-nitrobenzoic acid)] |  |  |  |  |  |  |  |  |  |  |  |  |  | no effect either alone or in combination | no effect either alone or in combination | sensitizes leukemic cells grown in fibronectin-coated plates to ARA-C-induced cell death | no effect
COc1cccc2c1C(=O)c1c(O)c3c(c(O)c1C2=O)C[C@@](O)(C(C)=O)C[C@@H]3O[C@H]1C[C@H](N)[C@H](O)[C@H](C)O1 [daunorubicin, reference compound] | more resistant | more resistant |  |  |  |  |  |  |  |  |  |  |  |  |  |  | 
